What all share (assay): COMPOUND A In Vitro Assay
What all share (assay type): cell-based, human

For assay [1], the system named is DU145. The text has this:
(§1) To generate an MDM2 antagonist therapy predictive signature, the response of MDM2 antagonist therapy in vitro with gene expression profiling (FIG. 1) is combined. A bank of 287 human cancer cell lines, collectively termed the Cell Lines for Oncology/Chugai ACcumulative Tumour EncycLopedia (CELLO/CACTEL), representing a broad array of diverse human cancer tumor types are subject to evaluation using several high-throughput genomic technology platforms. The mutational status of nucleic acids from each cell line is determined by exome sequencing. Messenger RNA (mRNA) expression levels at baseline, prior to MDM2 antagonist therapy, are obtained via RNA sequencing. MDM2 antagonist therapy COMPOUND A, sometimes referred to herein as RG7112, responses are obtained by assays known to those skilled in the art such as RNA sequencing and microarray measurement using Gene Chip Human Genome U133 Plus 2.0 Array. The MDM2 therapy responses are obtained by high throughout screening assays. Depending on their responses to COMPOUND A these cell lines are classified as either sensitive, defined as IC50<=1, or resistant, defined as IC50>=10.
(§2) 281 cells are treated with MDM2 antagonists and the IC50 (therapy response) is generated. The cell lines span a broad range of tumor cell types of derivation.

Assay [2] concerns KMS-26. As to conditions: for IC50: Homo sapiens.
Description: as §1, §2

Assay [3] relates to LCLC-103H.
Description: as §1, §2

Assay [4] deals with LN-18. As to conditions: for IC50: Homo sapiens.
Description: as §1, §2

For assay [5], the system named is MKN-45. To be noted: for IC50: Homo sapiens.
Description: as §1, §2

In assay [6] the test system is NCI-H2122. To be noted: for IC50: Homo sapiens.
Description: as §1, §2

Assay [7] has as its system PC-9. As to conditions: for IC50: Homo sapiens.
Description: as §1, §2

For orientation: IC50 means the concentration at which inhibition is half-maximal. Low values mean greater potency, high ones weaker potency. Take `CCOc1cc(C(C)(C)C)ccc1C1=N[C@@](C)(c2ccc(Cl)cc2)[C@@](C)(c2ccc(Cl)cc2)N1C(=O)N1CCN(CCCS(C)(=O)=O)CC1` [COMPOUND A]: the IC50 amounted to 1 µM in assay [1] (Homo sapiens, DU-145, Prostate, TP53 Mutant); 0.45 µM in assay [2] (KMS-26, KMS-26, Lymphocyte, TP53 Mutant); 0.5 µM in assay [2] (KMS-26, KMS-26 cells); 0.7 µM in assay [3] (Homo sapiens, Lung, TP53 Mutant); 0.67 µM in assay [4] (LN-18, LN-18, Brain, temporal lobe, TP53 Mutant); 0.7 µM in assay [4] (LN-18, LN-18 cells). The IC50 in assay [5] (MKN-45, MKN-45, Stomach, TP53 Mutant) worked out at 0.18 µM; in assay [5] (MKN-45, MKN-45 cells), 0.2 µM; in assay [6] (NCI-H2122, NCI-H2122, Lung, TP53 Mutant) it was 0.16 µM; in assay [6] (NCI-H2122, NCI-H2122 cells) it was 0.2 µM; in assay [7] (PC-9, PC-9, Lung, TP53 Mutant), 0.69 µM; in assay [7] (PC-9, PC-9 cells) it was 0.7 µM. In addition, the “response to COMPOUND A (sensitive / resistant)” value is “sensitive (sensitive, defined as IC50<=1)” in assay [1] (TP53 mutant cell line); “sensitive (sensitive, defined as IC50<=1)” in assay [2] (KMS-26, TP53 mutant cell line); “sensitive (sensitive, defined as IC50<=1)” in assay [3] (TP53 mutant cell line); “sensitive (sensitive, defined as IC50<=1)” in assay [4] (LN-18, TP53 mutant cell line); “sensitive (sensitive, defined as IC50<=1)” in assay [5] (MKN-45, TP53 mutant cell line); “sensitive (sensitive, defined as IC50<=1)” in assay [6] (NCI-H2122, TP53 mutant cell line). Also, in assay [7] (PC-9, TP53 mutant cell line), the “response to COMPOUND A (sensitive / resistant)” value is on record as “sensitive (sensitive, defined as IC50<=1)”.
